Test results published in US20150232876A1, “Use of a Receptor Kinase Having LysM Motifs in Order to Improve the Response of Plants to Lipochitooligosaccharides” (INSTITUT NATIONAL DE LA RECHERCHE AGRONOMIQUE, priority 2012, published 2015).

Experiments:
PsLYR3 = PsLYR3 (Lathyrus oleraceus, UniProt A0A9D5BD18); assay: Equilibrium, saturation and competitive binding on MtLYR3 ortholog expressed in N. benthamiana leaves; design: species or system Pisum sativum; settings: PsLYR3, 1 nM radioligand
Text: (§1) In legumes, MtLYR3 orthologs have been identified in P. sativum, P. vulgaris and L. japonicus. In G. max orthologs exist in duplicate due to a duplication of the genome. The corresponding genes have been cloned and sequenced. A few differences in sequence compared with sequences in the databases were found which could be explained by the use of different varieties of plants or by sequencing errors in databases. The cloned genes were introduced into binary vectors, in C-terminal fusion with the fluorescent protein YFP, and introduced into Nicotiana benthamiana leaves using agroinfiltration by Agrobacterium tumefaciens, as described above in Example 3. The membrane fractions were isolated, their protein content was analyzed by electrophoresis under denaturing conditions, followed by immunodetection using anti-GFP antibody as described in Example 3, and their ability to interact with LCOs was determined by equilibrium binding, as described in Example 1, in the presence of 1 nM LCO-IV (S^35, C16:2Δ2, 9). The value of specific binding is determined by the value of difference between the total binding and the nonspecific binding obtained for incubation in the presence of an excess (2 μM) of unlabeled ligand. For comparison, the ability to interact of LjNFR5 and LjNFR1 receptors, identified in L. japonicus to play a role in nodulation by a genetic approach (MADSEN et al, Nature, 425, 637-40, 2003. RADUTOIU et al., Nature, 425, 585-92, 2003a) and respective orthologs of LYK3 and NFP in M. truncatula was determined under the same conditions.
(§2) To further characterize the binding properties of MtLYR3 orthologs to LCOs, saturation and competitive binding experiments in the presence of different COs or LCOs were performed.

AtLysM-RLK4 = target: T1, AtLysM-RLK4 (Arabidopsis thaliana, UniProt O64825); assay: Equilibrium binding on AtLysM-RLK4 expressed in N. benthamiana leaves
T1 construct: YFP (implied by anti-GFP immunopurification); expressed in transfected cells; host or cells: Nicotiana benthamiana leaves, membrane fraction
T1 sequence (O64825 23-612): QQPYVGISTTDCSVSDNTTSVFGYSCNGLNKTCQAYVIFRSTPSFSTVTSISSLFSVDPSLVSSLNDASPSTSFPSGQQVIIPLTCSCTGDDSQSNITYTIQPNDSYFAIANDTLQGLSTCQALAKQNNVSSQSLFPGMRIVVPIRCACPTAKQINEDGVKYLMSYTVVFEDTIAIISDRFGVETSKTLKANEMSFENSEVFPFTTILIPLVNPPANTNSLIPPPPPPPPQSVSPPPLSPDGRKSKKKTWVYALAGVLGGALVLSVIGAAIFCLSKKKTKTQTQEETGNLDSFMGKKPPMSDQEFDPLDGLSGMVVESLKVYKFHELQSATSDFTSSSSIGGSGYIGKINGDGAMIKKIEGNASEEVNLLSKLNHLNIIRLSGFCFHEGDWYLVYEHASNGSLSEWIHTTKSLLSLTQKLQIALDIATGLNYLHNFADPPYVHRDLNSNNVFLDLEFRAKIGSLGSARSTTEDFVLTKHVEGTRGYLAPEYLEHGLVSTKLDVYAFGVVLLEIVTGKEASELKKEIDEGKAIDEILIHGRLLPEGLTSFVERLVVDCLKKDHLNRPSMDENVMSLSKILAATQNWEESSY
Experimental: (§3) In non-legumes, PpLYR3, SILYR3 and AtLysM-RLK4 genes have been cloned, the corresponding proteins were expressed in N. benthamiana leaves, and their ability to bind to LCOs was determined by binding experiments at equilibrium, as described above for legumes LYR3 proteins.

LjNFR1 = assay: Equilibrium binding on receptor expressed in N. benthamiana leaves; design: species or system Lotus japonicus; settings: LjNFR1, 1 nM radioligand
Text: as §1, with “For comparison, the ability to interact of LjNFR5 and LjNFR1 receptors, identified in L. japonicus to play a role in nodulation by a genetic approach (MADSEN et al, Nature, 425, 637-40, 2003. RADUTOIU et al., Nature, 425, 585-92, 2003a) and respective orthologs of LYK3 and NFP in M. truncatula was determined under the same conditions.” left out

LjNFR5 = assay: as above; design: species or system Lotus japonicus; settings: LjNFR5, 1 nM radioligand
Text: as §1, with “For comparison, the ability to interact of LjNFR5 and LjNFR1 receptors, identified in L. japonicus to play a role in nodulation by a genetic approach (MADSEN et al, Nature, 425, 637-40, 2003. RADUTOIU et al., Nature, 425, 585-92, 2003a) and respective orthologs of LYK3 and NFP in M. truncatula was determined under the same conditions.” left out

SILYR3 = assay: Equilibrium binding on SILYR3 expressed in N. benthamiana leaves; design: species or system Solanum lycopersicum
Experimental: as §3

PpLYR3 = PpLYR3 (Prunus persica, UniProt A0A251NBL6); assay: Equilibrium, saturation and competition binding on PpLYR3 expressed in N. benthamiana leaves
Sequence of PpLYR3 (A0A251NBL6 entry or part of it): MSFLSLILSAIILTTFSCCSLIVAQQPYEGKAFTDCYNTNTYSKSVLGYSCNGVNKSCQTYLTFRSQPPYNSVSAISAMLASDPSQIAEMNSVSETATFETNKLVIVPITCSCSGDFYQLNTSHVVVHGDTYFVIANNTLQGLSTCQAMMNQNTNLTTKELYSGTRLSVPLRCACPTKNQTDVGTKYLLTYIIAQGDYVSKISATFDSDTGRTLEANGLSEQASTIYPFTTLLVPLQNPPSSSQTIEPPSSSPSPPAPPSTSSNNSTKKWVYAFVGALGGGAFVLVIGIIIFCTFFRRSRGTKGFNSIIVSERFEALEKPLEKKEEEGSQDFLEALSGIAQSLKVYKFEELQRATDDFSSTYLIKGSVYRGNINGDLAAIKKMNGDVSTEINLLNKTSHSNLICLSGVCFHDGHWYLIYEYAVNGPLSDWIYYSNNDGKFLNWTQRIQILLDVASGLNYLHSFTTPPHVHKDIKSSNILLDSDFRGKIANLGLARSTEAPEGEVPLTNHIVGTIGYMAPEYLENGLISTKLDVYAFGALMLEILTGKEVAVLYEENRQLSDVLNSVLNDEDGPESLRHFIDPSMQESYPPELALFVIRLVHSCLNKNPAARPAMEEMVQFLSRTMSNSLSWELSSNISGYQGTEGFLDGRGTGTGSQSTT
Experimental: as §3
The interaction of PpLYR3 with the Nod LCO-IV (^35S, C16:2Δ2, 9) factor has been characterized in more detail by means of saturation and competition experiments. The results obtained are illustrated in FIG. 9. […] Similarly, PpLYR3 specifically recognizes the LCOs as interaction with COs (CO-IV and CO-VIII) is of low affinity (Ki>5 μM).

PvLYR3 = PvLYR3 (Phaseolus vulgaris, UniProt V7CFC1); assay: Equilibrium, saturation and competitive binding on MtLYR3 ortholog expressed in N. benthamiana leaves; settings: PvLYR3, 1 nM radioligand
Sequence of PvLYR3 (V7CFC1 entry or part of it): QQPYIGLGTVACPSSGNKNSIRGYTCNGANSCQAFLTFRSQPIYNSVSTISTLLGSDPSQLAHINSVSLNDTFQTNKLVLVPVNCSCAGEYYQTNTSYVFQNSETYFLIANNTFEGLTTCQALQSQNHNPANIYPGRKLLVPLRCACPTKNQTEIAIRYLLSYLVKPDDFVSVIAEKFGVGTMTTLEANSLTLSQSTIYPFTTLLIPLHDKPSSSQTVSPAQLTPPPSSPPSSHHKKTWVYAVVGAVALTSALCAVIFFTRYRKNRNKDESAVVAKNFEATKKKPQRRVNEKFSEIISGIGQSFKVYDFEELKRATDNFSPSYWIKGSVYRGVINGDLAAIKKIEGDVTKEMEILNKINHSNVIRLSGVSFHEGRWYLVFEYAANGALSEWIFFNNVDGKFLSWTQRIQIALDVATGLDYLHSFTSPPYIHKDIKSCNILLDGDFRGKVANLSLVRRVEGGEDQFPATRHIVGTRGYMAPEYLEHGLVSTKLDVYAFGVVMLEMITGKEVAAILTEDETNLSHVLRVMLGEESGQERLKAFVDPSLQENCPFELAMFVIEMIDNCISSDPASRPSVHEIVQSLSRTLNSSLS
Text: as §1, §2

GmLYR3-11 = GmLYR3-11 (Glycine max, UniProt I1LHL9); assay: as above; settings: GmLYR3-11, 1 nM radioligand
Sequence of GmLYR3-11 (I1LHL9 entry or part of it): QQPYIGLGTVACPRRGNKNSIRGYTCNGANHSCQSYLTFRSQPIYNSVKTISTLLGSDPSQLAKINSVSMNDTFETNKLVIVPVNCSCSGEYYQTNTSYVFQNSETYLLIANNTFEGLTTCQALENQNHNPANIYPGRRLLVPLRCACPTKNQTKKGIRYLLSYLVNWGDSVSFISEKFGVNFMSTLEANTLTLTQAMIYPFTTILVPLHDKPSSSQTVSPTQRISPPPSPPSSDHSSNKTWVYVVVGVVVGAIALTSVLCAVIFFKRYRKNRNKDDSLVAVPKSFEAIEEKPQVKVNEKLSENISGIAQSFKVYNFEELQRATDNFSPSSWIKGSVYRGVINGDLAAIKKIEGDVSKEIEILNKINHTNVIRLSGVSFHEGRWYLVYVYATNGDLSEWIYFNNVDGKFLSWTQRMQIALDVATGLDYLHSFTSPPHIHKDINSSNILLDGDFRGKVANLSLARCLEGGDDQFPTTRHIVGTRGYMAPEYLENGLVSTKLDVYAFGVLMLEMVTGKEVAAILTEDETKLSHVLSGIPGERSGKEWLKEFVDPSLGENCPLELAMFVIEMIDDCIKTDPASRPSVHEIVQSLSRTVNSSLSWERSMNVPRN
Text: as §1, §2

LjLYS12 = LjLYS12 (Lotus japonicus, UniProt D3KTZ9); assay: as above; settings: LjLYS12, 1 nM radioligand
Sequence of LjLYS12 (D3KTZ9 entry or part of it): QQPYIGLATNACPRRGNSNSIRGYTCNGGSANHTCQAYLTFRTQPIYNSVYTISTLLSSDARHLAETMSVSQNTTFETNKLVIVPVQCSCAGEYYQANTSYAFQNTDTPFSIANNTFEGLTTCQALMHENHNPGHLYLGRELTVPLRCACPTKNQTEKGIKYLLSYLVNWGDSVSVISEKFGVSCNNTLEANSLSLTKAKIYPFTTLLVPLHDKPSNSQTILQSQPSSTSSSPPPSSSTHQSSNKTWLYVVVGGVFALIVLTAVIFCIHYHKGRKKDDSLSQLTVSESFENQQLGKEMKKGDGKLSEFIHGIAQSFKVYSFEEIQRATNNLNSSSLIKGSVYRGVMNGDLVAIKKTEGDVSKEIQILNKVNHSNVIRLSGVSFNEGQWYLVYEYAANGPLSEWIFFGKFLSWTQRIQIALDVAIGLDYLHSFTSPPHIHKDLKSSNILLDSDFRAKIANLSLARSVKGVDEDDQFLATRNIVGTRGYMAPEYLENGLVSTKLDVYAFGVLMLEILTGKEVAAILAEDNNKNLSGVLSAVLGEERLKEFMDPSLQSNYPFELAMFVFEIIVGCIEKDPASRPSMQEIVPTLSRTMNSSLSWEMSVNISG
Text: as §1, §2

GmLYR3-1 = GmLYR3-1 (Glycine max, UniProt A5YJW2); assay: as above; settings: GmLYR3-1, 1 nM radioligand
Sequence of GmLYR3-1 (A5YJW2 entry or part of it): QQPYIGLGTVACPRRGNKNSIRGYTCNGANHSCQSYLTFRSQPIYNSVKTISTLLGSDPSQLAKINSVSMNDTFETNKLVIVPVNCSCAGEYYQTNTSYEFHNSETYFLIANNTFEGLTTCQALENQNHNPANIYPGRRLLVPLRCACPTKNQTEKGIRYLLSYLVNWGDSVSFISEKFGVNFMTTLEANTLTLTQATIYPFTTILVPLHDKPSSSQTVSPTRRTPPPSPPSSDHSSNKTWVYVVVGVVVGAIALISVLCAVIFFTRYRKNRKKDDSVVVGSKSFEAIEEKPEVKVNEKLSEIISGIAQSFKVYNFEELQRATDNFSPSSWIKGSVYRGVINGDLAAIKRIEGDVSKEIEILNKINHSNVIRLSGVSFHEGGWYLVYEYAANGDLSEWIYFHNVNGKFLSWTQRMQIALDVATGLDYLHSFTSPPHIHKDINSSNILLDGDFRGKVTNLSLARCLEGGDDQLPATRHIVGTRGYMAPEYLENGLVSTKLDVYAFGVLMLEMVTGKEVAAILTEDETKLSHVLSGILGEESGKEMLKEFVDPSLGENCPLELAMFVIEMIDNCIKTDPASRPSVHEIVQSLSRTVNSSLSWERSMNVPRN
Text: as §1, §2

Sequence of PsLYR3 (A0A9D5BD18 entry or part of it): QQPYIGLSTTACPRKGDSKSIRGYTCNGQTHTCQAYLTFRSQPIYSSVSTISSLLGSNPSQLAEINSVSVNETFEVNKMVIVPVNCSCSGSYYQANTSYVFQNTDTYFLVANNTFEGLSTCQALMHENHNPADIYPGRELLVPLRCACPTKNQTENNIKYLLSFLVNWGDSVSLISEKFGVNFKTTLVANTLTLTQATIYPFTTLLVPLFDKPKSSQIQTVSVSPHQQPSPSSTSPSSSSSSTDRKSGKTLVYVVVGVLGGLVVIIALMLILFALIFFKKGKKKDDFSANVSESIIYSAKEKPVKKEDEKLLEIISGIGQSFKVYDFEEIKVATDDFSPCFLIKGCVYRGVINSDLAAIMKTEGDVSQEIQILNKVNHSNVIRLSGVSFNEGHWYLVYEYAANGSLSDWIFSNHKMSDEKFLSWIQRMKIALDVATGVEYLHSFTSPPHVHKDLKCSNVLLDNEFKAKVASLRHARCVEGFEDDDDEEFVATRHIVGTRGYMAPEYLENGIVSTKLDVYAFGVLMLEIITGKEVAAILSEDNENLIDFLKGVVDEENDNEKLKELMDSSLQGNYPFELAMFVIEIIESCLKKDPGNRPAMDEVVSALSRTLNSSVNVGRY

Structure (SMILES): CCCCCC/C=C\CCCCC/C=C/C(=O)N[C@H]1[C@H](O[C@H]2[C@H](O)[C@@H](NC(C)=O)[C@H](O[C@H]3[C@H](O)[C@@H](NC(C)=O)[C@H](O[C@H]4[C@H](O)[C@@H](NC(C)=O)C(O)O[C@@H]4COS(=O)(=O)O)O[C@@H]3CO)O[C@@H]2CO)O[C@H](CO)[C@@H](O)[C@@H]1O (some centres unmarked) [LCO-IV (^35S, C16:2Δ2, 9)]
- binding activity of membrane fractions (interaction with radioligand) (PsLYR3): interact
- binding activity of membrane fractions (interaction with radioligand) (AtLysM-RLK4): no interaction
- binding activity of membrane fractions (interaction with radioligand) (LjNFR1): no interaction
- binding activity of membrane fractions (interaction with radioligand) (LjNFR5): no interaction
- binding activity of membrane fractions (interaction with radioligand) (SILYR3): very low
- binding activity of membrane fractions (interaction with radioligand) (PpLYR3; PpLYR3): interacts
- Kd (PpLYR3; PpLYR3, saturation): 15 nM
- binding activity of membrane fractions (interaction with radioligand) (PvLYR3): interact
- binding activity of membrane fractions (interaction with radioligand) (GmLYR3-11): interact
- binding activity of membrane fractions (interaction with radioligand) (LjLYS12): interact
- binding activity of membrane fractions (interaction with radioligand) (GmLYR3-1): interact
